The source of these data is patent US11903917B2, “MEK-inhibitor for the treatment of viral and bacterial infections” (priority 2017, dated 2024).

A word on the EC50: it is the concentration needed to bring the measured effect to its halfway point. As a reminder, the CC50 is the concentration at which the toxic effect on the cells reaches its halfway point.

Read-outs that look alike come from different tables or passages of the source.

Series [1] relates to S. aureus 6850. The series can be described thus: Over-night treated culture, bacterial titers (CFU/ml) and OD600. The series is classed as cell-based, Staphylococcus aureus. Particulars: for effect on bacterial titers (CFU/ml): over night treatment, S. aureus 6850, vs solvent.
Series [2] concerns S. aureus 6850. The series is classed as cell-based, Staphylococcus aureus.
Series [3] has as its system influenza A virus strain RB1 [A/Regensburg/D6/09 (H1N1 pdm09)]. The series can be described thus: Progeny virus inhibition assay in A549 cells. Format: cell-based.
Series [4] can be described thus: Pharmacokinetics, drug in plasma after i.v. or per os application. Format: in vivo, NMRI mice. As for the experimental part: Blood was collected at 15 min, 30 min, 1 h, 2 h, 4 h, 6 h, 8 h and 24 h (test day 2) after administration and plasma was analysed for the presence of the drug. […] Blood was collected at 15 min, 30 min, 1 h, 2 h, 4 h, 6 h, 8 h and 24 h (test day 2) after administration and plasma was analysed for the presence of the drug. Each data point represents the mean value of three plasma samples. Graphpad Prism 7 software was used to illustrate both figures.
34.88 mg PD-0184264 were dissolved in 0.075 ml DMSO and further diluted with 0.225 ml Cremophor EL/2.7 ml PBS. […] 81.0 mg PD-0184264 were dissolved in 0.2 ml DMSO/0.6 ml Cremophor EL/3.2 ml PBS.
Eight week old male NMRI mice (Charles River Laboratories, Germany) with a body weight of 23.9-36.5 g at administration were used for pharmacokinetic studies. The animals were normally fed. Drinking water was available ad libitum.
Experiments were performed at LPT GmbH (Hamburg, Germany). Sufficient whole blood—taken under isoflurane anaesthesia—was collected to obtain at least 2×100 μl Li-Heparin plasma of 3 animals per group and time-point at the following times: 0 (predose), 15 min, 30 min, 1 h, 2 h, 4 h, 6 h, 8 h and 24 h (test day 2) after administration. The whole blood samples were instantly cooled using an Iso-Therm-Rack system (Eppendorf AG, Germany) until centrifugation within 0.5 hours after withdrawal. Immediately after centrifugation, the samples were stored at −20° C. until further analysis. Plasma analysis was performed using standard procedures at Prolytic GmbH (Frankfurt, Germany).
Drugs were either administrated using a single dosing on test day 1 by oral gavage or by Intravenous bolus injection into a tail vein. The Injection speed was 15 s/dose with an administration volume of 200 μl.

Series [5] has as its system influenza A virus strain RB1 [A/Regensburg/D6/09 (H1N1 pdm09)]. Particulars: against RB1, Haasbach et al. 2017; cited from earlier work.
Series [6] has as its system A549 cells. Particulars: read-out: CC50 value; Haasbach et al. 2017; cited from earlier work.
The test system of series [7] is MRSA strain S. aureus (USA300). The series can be described thus: Cell-free culture bacterial growth (OD600). The settings on record: 50 μM, monitored for 360 minutes, vs solvent DMSO.
Description: Bacterial growth was monitored for 360 minutes.
MRSA bacteria were incubated with different concentrations of the MEK inhibitor ranging from 0-100 μM and bacterial growth was monitored six hours after cultivation.
The subject of series [8] is S. aureus 6850. The series can be described thus: MIC of antibiotics (MIC test stripes) after over-night treatment of bacteria with PD0184264. Format: cell-based, Staphylococcus aureus. Particulars: for MIC: read-out: Minimal inhibitory concentration (MIC).
Series [9] has as its system S. aureus USA300. The series is described as above. The series is classed as cell-based, Staphylococcus aureus. Particulars: for MIC: Staphylococcus aureus, read-out: Minimal inhibitory concentration (MIC).
Series [10] relates to S. aureus. The series can be described thus: Resistance development during 17 days of constant treatment. The series is classed as cell-based, Staphylococcus aureus. Particulars: 24 h cycles repeated for 17 days.
Series [11] deals with MRSA strain USA300. The series can be described thus: Over-night treated culture, bacterial titers (CFU/ml) and OD600. Format: cell-based, Staphylococcus aureus.
The mark [12] stands for this setting: Staphylococcus aureus, 6850, S. aureus 6850, culture treated over night with 20 μM PD0184264.
The mark [13] stands for this setting: Staphylococcus aureus, 6850, S. aureus 6850, untreated (solvent) culture.
Where [14] appears, read: USA300, S. aureus USA300, culture treated over night with PD0184264.
[15] abbreviates: USA300, S. aureus USA300, untreated (solvent) culture.
Setting [16] is: S. aureus 6850, culture treated over night with 20 μM PD0184264.
The mark [17] stands for this setting: S. aureus 6850, untreated (solvent) culture.
Where [18] appears, read: S. aureus USA300, culture treated over night with PD0184264.
[19] abbreviates: S. aureus USA300, untreated (solvent) culture.

`O=C(NOCC1CC1)c1ccc(F)c(F)c1Nc1ccc(I)cc1Cl` [CI-1040, 2-(2-chloro-4-iodophenylamino)-N-(cyclopropylmethoxy)-3,4-difluoro benzamide, reference compound]: the “effect on bacterial titers (CFU/ml)” value in series [1] is given as “effective”. The intracellular bacterial titers entry in series [2] is “no changes in intracellular bacterial load”. The “reduction of virus titer” value in series [3] stood at 96.78±0.65%. The “drug in plasma at eight hours” value in series [4] (75 mg/kg i.v. application) and in series [4] (150 mg/kg per os application) was “almost no drug was detected” in each case. Also, the EC50 in series [5] was 26 nM. Further, in series [6], the CC50 is > 312000 nM. In addition, in series [7], the “bacterial growth (OD600)” value is recorded as “slightly inhibited”.

For the compound `O=C(O)c1cn(C2CC2)c2cc(N3CCNCC3)c(F)cc2c1=O` [Ciprofloxacin], the MIC was 0.12 to 0.25 µg/mL in [8] (setting [12]), 0.25 µg/mL in series [8] (setting [13]), 4 to 8 µg/mL in series [9] (setting [14]) and 8 µg/mL in series [9] (setting [15]).

Consider `CC[C@H]1OC(=O)[C@H](C)[C@@H](O[C@H]2C[C@@](C)(OC)[C@@H](O)[C@H](C)O2)[C@H](C)[C@@H](O[C@@H]2O[C@H](C)C[C@H](N(C)C)[C@H]2O)[C@](C)(O)C[C@@H](C)C(=O)[C@H](C)[C@@H](O)[C@]1(C)O` [Erythromycin], for which the “resistance development in S. aureus” value in series [10] is on record as “readily develop resistances”.

On to `CC(=O)NC[C@H]1CN(c2ccc(N3CCOCC3)c(F)c2)C(=O)O1` [Linezolid], for which the MIC in series [8] (setting [12]) came out at 1 µg/mL; in [8] (setting [13]), 2 µg/mL; in series [9] (setting [14]), 1 µg/mL; in series [9] (setting [15]), 2 µg/mL.

Take `C[C@@H](O)[C@H]1C(=O)N2C(C(=O)O)=C(S[C@@H]3CN[C@H](C(=O)N(C)C)C3)[C@H](C)[C@H]12` [Meropenem]: the MIC in [8] (setting [12]) was 0.03 µg/mL; in series [8] (setting [13]), 0.06 µg/mL; in series [9] (setting [14]), 0.06 µg/mL; in [9] (setting [15]) it was 0.12 to 0.25 µg/mL.

Consider `N#CC(=C(/N)Sc1ccccc1N)/C(C#N)=C(\N)Sc1ccccc1N` [U0126, reference compound], for which the “effect on bacterial titers (CFU/ml)” value in [1] was “minor reduction in bacterial titers”; in series [11] (over night treatment, MRSA USA300, vs solvent), “minor reduction in bacterial titers”.

In the case of Gentamicin, the “Minimal inhibitory concentration (MIC)” value came out at 0.12 µg/mL in series [8] (setting [16]), 2 µg/mL in series [8] (setting [17]), 0.12 µg/mL in series [9] (setting [18]) and 1 µg/mL in series [9] (setting [19]). Also, the “reduction in bacterial titers” value in series [1] (0.5 μg/ml, over night, S. aureus 6850) is reported as “no reduction in bacterial titers”; in series [11] (0.5 μg/ml, over night, MRSA USA300), “no reduction in bacterial titers”. For the same compound, the bacterial growth result in [1] (concentrations higher than 1 μg/ml, over night, S. aureus 6850) was “strongly inhibited”; in series [11] (concentrations higher than 1 μg/ml, over night, MRSA USA300), “strongly inhibited”. For the same compound, the “resistance development in S. aureus” value in [10] is recorded as “resistance development occurred during the first week of treatment”.

For Penicillin, the “Minimal inhibitory concentration (MIC)” value is 0.25 to 0.5 µg/mL in series [8] (setting [16]), 16 µg/mL in [8] (setting [17]), 8 µg/mL in series [9] (setting [18]) and >256 µg/mL in [9] (setting [19]).
